Assay [1] deals with T1, Solute carrier organic anion transporter family member 1A4 (Rattus norvegicus, UniProt O35913).
T1 sequence (O35913 whole entry): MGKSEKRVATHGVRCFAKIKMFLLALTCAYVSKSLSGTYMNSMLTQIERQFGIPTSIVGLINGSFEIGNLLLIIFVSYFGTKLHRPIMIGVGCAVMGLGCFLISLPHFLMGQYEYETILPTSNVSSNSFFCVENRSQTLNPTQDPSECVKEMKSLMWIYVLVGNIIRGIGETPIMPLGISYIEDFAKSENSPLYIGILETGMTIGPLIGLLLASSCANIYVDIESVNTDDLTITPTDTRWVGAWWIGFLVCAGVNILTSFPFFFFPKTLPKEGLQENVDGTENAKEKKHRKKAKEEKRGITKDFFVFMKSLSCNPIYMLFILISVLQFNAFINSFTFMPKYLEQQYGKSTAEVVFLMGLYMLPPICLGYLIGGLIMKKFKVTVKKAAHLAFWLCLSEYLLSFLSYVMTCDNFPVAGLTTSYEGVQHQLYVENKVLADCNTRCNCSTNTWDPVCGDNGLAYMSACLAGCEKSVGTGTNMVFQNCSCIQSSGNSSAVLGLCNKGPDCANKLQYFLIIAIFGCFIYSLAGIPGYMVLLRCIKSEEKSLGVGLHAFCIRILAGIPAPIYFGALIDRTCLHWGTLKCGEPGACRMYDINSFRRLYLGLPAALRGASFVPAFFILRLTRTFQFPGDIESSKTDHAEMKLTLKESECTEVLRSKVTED
Briefly: (§1) TP_TRANSPORTER: inhibition of E217betaG uptake in Xenopus laevis oocytes. It is filed as functional, cell-based, Oocyte.

For assay [2], the target named is T2, Solute carrier organic anion transporter family member 1A1 (Rattus norvegicus, UniProt P46720).
T2 sequence (P46720 whole entry): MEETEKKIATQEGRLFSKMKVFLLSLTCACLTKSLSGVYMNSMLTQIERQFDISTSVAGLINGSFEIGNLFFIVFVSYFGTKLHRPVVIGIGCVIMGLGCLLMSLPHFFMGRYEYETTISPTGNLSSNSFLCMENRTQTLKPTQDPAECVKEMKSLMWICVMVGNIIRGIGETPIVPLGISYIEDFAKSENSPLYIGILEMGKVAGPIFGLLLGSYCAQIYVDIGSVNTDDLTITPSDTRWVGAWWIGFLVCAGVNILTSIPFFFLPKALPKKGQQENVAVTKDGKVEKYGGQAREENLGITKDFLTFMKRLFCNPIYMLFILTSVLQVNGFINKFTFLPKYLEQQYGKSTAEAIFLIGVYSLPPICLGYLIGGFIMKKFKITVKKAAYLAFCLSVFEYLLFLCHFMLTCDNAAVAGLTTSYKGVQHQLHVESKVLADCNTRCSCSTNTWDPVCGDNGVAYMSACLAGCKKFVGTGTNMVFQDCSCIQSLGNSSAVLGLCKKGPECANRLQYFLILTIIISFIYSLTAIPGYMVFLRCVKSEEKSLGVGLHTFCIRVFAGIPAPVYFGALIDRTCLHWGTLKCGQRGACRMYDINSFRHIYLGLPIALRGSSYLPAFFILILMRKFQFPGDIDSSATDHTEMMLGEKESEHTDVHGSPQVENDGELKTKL
Described as §1. It is filed as functional, cell-based, Oocyte.

The Ki is a dissociation constant, usually derived from enzyme kinetics or from competition with a known ligand. Lower therefore signals tighter binding.

On to `CO[C@H]1/C=C/O[C@@]2(C)Oc3c(C)c(O)c4c(O)c(c(/C=N/N5CCN(C)CC5)c(O)c4c3C2=O)NC(=O)/C(C)=C\C=C\[C@H](C)[C@H](O)[C@@H](C)[C@@H](O)[C@@H](C)[C@H](OC(C)=O)[C@@H]1C` [RIFAMPIN], for which, in assay [1], the inhibition constant Ki was determined as 1.4 µM. As for `CO[C@H]1/C=C/O[C@@]2(C)Oc3c(C)c(O)c4c(O)c(cc(O)c4c3C2=O)NC(=O)/C(C)=C\C=C\[C@H](C)[C@H](O)[C@@H](C)[C@@H](O)[C@@H](C)[C@H](OC(C)=O)[C@@H]1C` [RIFAMYCIN], the Ki worked out at 6.6 µM in assay [2] and 7.3 µM in assay [1].

The values are drawn from ChEMBL document CHEMBL2073820, “Rifamycin SV and rifampicin exhibit differential inhibition of the hepatic rat organic anion transporting polypeptides, Oatp1 and Oatp2” (Hepatology, 2000).
